tested on: VEGF induced increases in intracellular calcium levels in HUVEC (human umbilical vein endothelial cells); assay: VEGF Stimulated Ca++ Signal in vitro (FLIPR); type: cell-based; conditions: 10 μM, VEGF 5 ng/mL
Protocol: VEGF Stimulated Ca^++ Signal in vitro
Automated FLIPR (Fluorometric Imaging Plate Reader) technology was used to screen for inhibitors of VEGF induced increases in intracellular calcium levels in fluorescent dye loaded endothelial cells. HUVEC (human umbilical vein endothelial cells) (Clonetics) were seeded in 96-well fibronectin coated black-walled plates overnight at 37° C./5%CO2. Cells were loaded with calcium indicator Fluo-4 for 45 minutes at 37° C. Cells were washed 4 times (Original Cell Wash, Labsystems) to remove extracellular dye. Test compounds were reconstituted in 100% DMSO and added to the cells to give a final DMSO concentration of 0.1%. For screening, cells were pre-incubated with test agents for 30 minutes, at a single concentration (10 μM) or at concentrations ranging from 0.01 to 10.0 μM followed by VEGF stimulation (5 ng/mL). Changes in fluorescence at 516 nm were measured simultaneously in all 96 wells using a cooled CCD camera. Data were generated by determining max-min fluorescence levels for unstimulated, stimulated, and drug treated samples. IC50 values for test compounds were calculated from % inhibition of VEGF stimulated responses in the absence of inhibitor.

Compound | VEGF Stimulated Ca^++ signal assay % inhibition @ 10 μM [%]
3-[(Methyl-trifluoromethyl-phenylamino)-methylene]-1,3-dihydro-indol-2-one [Example 56] | 21.00
O=C1Nc2ccc(F)cc2C1=CNc1ccc(N2CCCCC2)cc1 [Example 221] | 97.59
3-[(Chloro-trifluoromethyl-phenylamino)-methylene]-1,3-dihydro-indol-2-one [Example 45] | 50.00
COc1ccc(NC=C2C(=O)Nc3ccccc32)cc1OC [Example 42, 3-[(3,4-Dimethoxyamino)-methylene]-1,3-dihydro-indol-2-one] | 59.50
COc1ccc(NC=C2C(=O)Nc3ccc(Cl)cc32)cc1F [Example 105, 5-Chloro-3-[(3-flouro-4-methoxyphenylamino)-methylene]-1,3-dihydro-indol-2-one] | 17.50

same assay, conditions: 0.01 to 10.0 μM, VEGF 5 ng/mL

Compound | IC50 [µM]
O=C1Nc2ccc(F)cc2C1=CNc1ccc(N2CCCCC2)cc1 [Example 221] | 0.93

same assay, conditions: Homo sapiens, 10 μM, VEGF 5 ng/mL

Compound | inhibition at 10 µM [%]
CCOC(=O)Oc1cc(NC=C2C(=O)Nc3ccccc32)c(F)cc1C [Example 26, Carbonic acid ethyl ester 4-fluoro-2-methyl-5-[(2-oxo-1,2-dihydro-indol-3-ylidenemethyl)-amino]-phenyl ester] | 37.5
O=C1Nc2ccccc2C1=CNc1cc(O)c(Cl)cc1F [Example 28, 3-[(4-Chloro-2-fluoro-5-hydroxy-phenylamino)-methylene]-1,3-dihydro-indol-2-one] | 32.5
COc1ccc(NC=C2C(=O)Nc3cccc(C)c32)cc1C(F)(F)F [Example 121, 3-[(4-Methoxy-3-trifluoromethyl-phenylamino)-methylene]-4-methyl-1,3-dihydro-indol-2-one] | 4.86
O=C1Nc2ccc(Cl)cc2C1=CNc1cccc(O)c1 [Example 76, 3-[(3-Hydroxyphenylamino)-methylene]-5-chloro-1,3-dihydro-indol-2-one] | 55.5
O=C1Nc2ccc(Cl)cc2C1=CNc1ccccc1 [Example 74, 3-[(Phenylamino)-methylene]-5-chloro-1,3-dihydro-indol-2-one] | 44
Cc1cc(C)cc(NC=C2C(=O)Nc3ccccc32)c1 [Example 19, 3-[(3,5-Dimethyl-phenylamino)-methylene]-1,3-dihydro-indol-2-one] | 14
Cc1cc(C)cc(NC=C2C(=O)Nc3ccc(Cl)cc32)c1 [Example 78, 3-[(3,5-Dimethylphenylamino)-methylene]-5-chloro-1,3-dihydro-indol-2-one] | 8
Cc1ccc(NC=C2C(=O)Nc3ccc(Cl)cc32)cc1O [Example 71, 3-[(3-Hydroxy-4-methylphenylamino)-methylene]-5-chloro-1,3-dihydro-indol-2-one] | 38.5
O=C1Nc2ccccc2C1=CNc1ccc(O)cc1 [Example 12, 3-[(4-Hydroxy-phenylamino)-methylene]-1,3-dihydro-indol-2-one] | 94.2
CCc1cccc(NC=C2C(=O)Nc3ccc(Cl)cc32)c1 [Example 148, 5-Chloro-3-[(3-ethyl-phenylamino)-methylene]-1,3-dihydro-indol-2-one] | 42.2
O=C1Nc2ccccc2C1=CNc1ccc2c(c1)CCC2 [Example 23, 3-(Indan-5-ylaminomethylene)-1,3-dihydro-indol-2-one] | 42
Cc1cccc2c1C(=CNc1ccc(OC(F)(F)F)cc1)C(=O)N2 [Example 120, 4-Methyl-3-[(4-trifluoromethoxy-phenylamino)-methylene]-1,3-dihydro-indol-2-one] | 12.7
O=C1Nc2ccccc2C1=CNc1ccc(Cl)cc1 [Example 36, 3-[(4-Chlorophenylamino)-methylene]-1,3-dihydro-indol-2-one] | 30
O=C1Nc2ccccc2C1CNc1cccc(Br)c1 (stereo not shown) [Example 4, 3-[(3-Bromo-phenylamino)-methyl]-1,3-dihydro-indol-2-one] | 16.5
CCc1ccccc1NC=C1C(=O)Nc2ccccc21 [Example 9, 3-[(2-Ethyl-phenylamino)-methylene}-1,3-dihydro-indol-2-one] | 13.5
O=C1Nc2ccccc2C1=CNc1cccc(Br)c1 [Example 2, 3-[(3-Bromo-phenylamino)-methylene]-1,3-dihydro-indol-2-one] | -0.5

Compound | inhibition at 10 µM [%]
CC(C)c1ccc(NC=C2C(=O)Nc3ccc(Cl)cc32)cc1 [Example 70, 3-[(4-i-Propylphenylamino)-methylene]-5-chloro-1,3-dihydro-indol-2-one] | 25
Cc1cc(F)c(NC=C2C(=O)Nc3ccccc32)cc1OC(=O)OCC(C)(C)C [Example 27, Carbonic acid 2,2-dimethyl-propyl ester 4-fluoro-2-methyl-5-[(2-oxo-1,2-dihydro-indol-3-ylidenemethyl)-amino]-phenyl ester] | -9
Cc1cc(NC=C2C(=O)Nc3ccc(Cl)cc32)ccc1O [Example 67, 3-[(3-Methyl-4-hydroxyphenylamino)-methylene]-5-chloro-1,3-dihydro-indol-2-one] | 19
Cc1cc(NC=C2C(=O)Nc3cccc(C)c32)ccc1O [Example 132, 3-[(4-Hydroxy-3-methyl-phenylamino)-methylene]-4-methyl-1,3-dihydro-indol-2-one] | 73
Cc1ccc(NC=C2C(=O)Nc3ccc(Cl)cc32)cc1C [Example 69, 3-[(3,4-Dimethylphenylamino)-methylene]-5-chloro-1,3-dihydro-indol-2-one] | -10.7
CCN(CC)Cc1cc(NC=C2C(=O)Nc3cccc(C)c32)ccc1O [Example 161, 3-[(3-Diethylaminomethyl-4-hydroxy-phenylamino)-methylene]-4-methyl-1,3-dihydro-indol-2-one] | 95.2
Cc1ccc(NC=C2C(=O)Nc3ccc(Cl)cc32)cc1 [Example 79, 3-[(4-Methylphenylamino)-methylene]-5-chloro-1,3-dihydro-indol-2-one] | -4
Cc1ccc(NC=C2C(=O)Nc3ccccc32)cc1 [Example 18, 3-(p-Tolylamino-methylene)-1,3-dihydro-indol-2-one] | 35.5
Cc1cc(NC=C2C(=O)Nc3ccccc32)ccc1Cl [Example 54, 3-[(4-Chloro-3-methyl-phenylamino)-methylene]-1,3-dihydro-indol-2-one] | 40.5
O=C1Nc2ccccc2C1=CNc1ccc(C(F)(F)F)cc1 [Example 25, 3-[(4-Trifluoromethyl-phenylamino)-methylene]-1,3-dihydro-indol-2-one] | -1.5
Cc1cccc2c1C(=CNc1ccc(O)c(C(=O)O)c1)C(=O)N2 [Example 118, 2-Hydroxy-5-[(4-methyl-2-oxo-1,2-dihydro-indol-3-ylidenemethyl)-amino]-benzoic acid] | -27
Cc1cc(NC=C2C(=O)Nc3ccccc32)ccc1O [Example 133, 3-[(4-Hydroxy-3-methyl-phenylamino)-methylene]-1,3-dihydro-indol-2-one] | 73
Cc1cc(C)cc(NC=C2C(=O)Nc3cccc(C)c32)c1 [Example 63, 3-[(3,5-Dimethyl-phenylamino)-methylene]-4-methyl-1,3-dihydro-indol-2-one] | -14.5
COC(=O)c1ccc(NC=C2C(=O)Nc3ccccc32)cc1OC [Example 89, 2-Methoxy-4-[(2-oxo-1,2-dihydro-indol-3-ylidenemethyl)-amino]-benzoic acid methyl ester] | 39.5
CC(C)(C)c1ccc(NC=C2C(=O)Nc3ccc(Cl)cc32)cc1 [Example 100, 5-Chloro-3-[(4-t-butyl-phenylamino)-methylene]-1,3-dihydro-indol-2-one] | 6

same assay, conditions: Homo sapiens, 0.01 to 10.0 μM, VEGF 5 ng/mL

Compound | IC50 [µM]
O=C1Nc2ccccc2C1=CNc1ccc(O)cc1 [Example 12, 3-[(4-Hydroxy-phenylamino)-methylene]-1,3-dihydro-indol-2-one] | 1.07
O=C1Nc2cccc(F)c2C1=CNc1ccc(CCCCN2CCOCC2)cc1 [Example 315, 4-Fluoro-3-{[4-(4-morpholin-4-yl-butyl)-phenylamino]-methylene}-1,3-dihydro-indol-2-one] | 1.54
Cc1cc(NC=C2C(=O)Nc3cccc(C)c32)ccc1O [Example 132, 3-[(4-Hydroxy-3-methyl-phenylamino)-methylene]-4-methyl-1,3-dihydro-indol-2-one] | 7.38
O=C1Nc2ccc(Cl)cc2C1=CNc1ccc(CCCCN2CCCCC2)cc1 [Example 319, 5-Chloro-3-{[4-(4-piperidin-1-yl-butyl)-phenylamino]-methylene}-1,3-dihydro-indol-2-one] | 0.95
O=C1Nc2cc(F)ccc2C1=CNc1ccc(CCCCN2CCOCC2)cc1 [Example 317, 6-Fluoro-3-{[4-(4-morpholin-4-yl-butyl)-phenylamino]-methylene}-1,3-dihydro-indol-2-one] | 0.17
O=C1Nc2ccccc2C1=CNc1ccc(CCCCN2CCOCC2)cc1 [Example 312, 3-{[4-(4-Morpholin-4-yl-butyl)-phenylamino]-methylene}-1,3-dihydro-indol-2-one] | 0.54
O=C1Nc2cccc(F)c2C1=CNc1ccc(CCCCN2CCCCC2)cc1 [Example 321, 4-Fluoro-3-{[4-(4-piperidin-1-yl-butyl)-phenylamino]-methylene}-1,3-dihydro-indol-2-one] | 1.18
Cc1cc(NC=C2C(=O)Nc3ccccc32)ccc1O [Example 133, 3-[(4-Hydroxy-3-methyl-phenylamino)-methylene]-1,3-dihydro-indol-2-one] | 4.91
O=C1Nc2ccc(F)cc2C1=CNc1ccc(CCCCN2CCOCC2)cc1 [Example 316, 5-Fluoro-3-{[4-(4-morpholin-4-yl-butyl)-phenylamino]-methylene}-1,3-dihydro-indol-2-one] | 0.59

Reference: patent publication US20030225152A1, “3-(Arylamino)methylene-1, 3-dihydro-2h-indol-2-ones as kinase inhibitors” (priority 2001, published 2003)
